Data from patent US6218597A, “Transgenic model and treatment for heart disease” (University Technology Corporation, priority 1998, dated 2001).
pKd: −log10 of the molar value.

Target: βAR (β-adrenergic receptor), cardiac sarcolemmal membranes of wild-type FVB/N mice
Conditions: read-out: Kd for ICYP

- pKd: ~10.70
Compound: CC(C)(C)NCC(O)COc1cccc2[nH]c(C#N)c([125I])c12 (stereo not shown) [ICYP, ^125 I-iodocyanopindolol]
